Data published in patent publication US9328099B2, “Cyanomethylpyrazole carboxamides as janus kinase inhibitors” (Merck Sharp & Dohme Corp., priority 2011, dated 2016).
pIC50: −log10 of the molar value.

Tests used:
JAK1 = JAK1 (Homo sapiens (Human), UniProt P23458); experiment: Jak Biochemical HTRF Assay, JAK1; details: HTRF biochemical assay, GST-tagged catalytic domain; top concentration tested […]; read-out: JAK1 IC50
Excerpt: (§1) Jak Biochemical HTRF Assay Protocol
(§2) Subsequent reagent additions employed an Agilent Bravo.

JAK2 = JAK2 (Homo sapiens (Human), UniProt O60674); experiment: Jak Biochemical HTRF Assay, JAK2; details: HTRF biochemical assay, GST-tagged catalytic domain; top concentration tested […]
Excerpt: as §1, §2

JAK1, sequence (P23458 875-1153): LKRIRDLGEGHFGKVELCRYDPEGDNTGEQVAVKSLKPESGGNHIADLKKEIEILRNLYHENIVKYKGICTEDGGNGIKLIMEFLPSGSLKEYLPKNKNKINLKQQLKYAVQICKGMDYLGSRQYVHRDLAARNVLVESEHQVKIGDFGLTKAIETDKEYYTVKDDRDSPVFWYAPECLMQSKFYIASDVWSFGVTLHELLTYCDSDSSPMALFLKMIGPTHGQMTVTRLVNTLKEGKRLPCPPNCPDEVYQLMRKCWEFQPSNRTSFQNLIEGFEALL
JAK2, sequence (O60674 849-1124): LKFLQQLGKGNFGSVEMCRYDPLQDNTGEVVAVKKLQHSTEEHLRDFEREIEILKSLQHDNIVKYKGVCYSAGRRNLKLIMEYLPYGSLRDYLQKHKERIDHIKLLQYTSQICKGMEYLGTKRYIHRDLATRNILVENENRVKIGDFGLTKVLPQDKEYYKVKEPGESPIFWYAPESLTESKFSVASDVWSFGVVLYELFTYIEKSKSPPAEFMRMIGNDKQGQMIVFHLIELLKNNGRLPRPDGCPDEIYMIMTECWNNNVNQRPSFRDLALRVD

SMILES | pIC50 (JAK1) | pIC50 (JAK2)
N#CCC1(n2cc(C(N)=O)c(Nc3ccc(F)cc3)n2)CCN(C(=O)OCC2CC2(F)F)CC1 (stereo not drawn) [Example 30-6, (2,2-difluorocyclopropyl)methyl 4-(4-carbamoyl-3-(4-fluorophenylamino)-1H-pyrazol-1-yl)-4-(cyanomethyl)piperidine-1-carboxylate] | 9.05 | 7.42
N#CCC1(n2cc(C(N)=O)c(Nc3ccc(F)cc3)n2)CCC(NCC(F)F)CC1 (stereo not drawn) [Example 40-77, Cis or trans 1-{1-(cyanomethyl)-4-[(2,2-difluoroethyl)amino]cyclohexyl}-3-[(4-fluorophenyl)amino]-1H-pyrazole-4-carboxamide] | 9.15 | 7.89
N#CCC1(n2cc(C(N)=O)c(Nc3ccnc(F)c3)n2)CCC(NCc2ccccc2C#N)CC1 (stereo not drawn) [Example 41-27, Cis or trans 1-{4-[(2-cyanobenzyl)amino]-1-(cyanomethyl)cyclohexyl}-3-[(2-fluoropyridin-4-yl)amino]-1H-pyrazole-4-carboxamide] | 6.51 | < 5.83
CSCCCN1CCC(CC#N)(n2cc(C(N)=O)c(Nc3ccccc3)n2)CC1 [Example 21-15, 1-{4-(cyanomethyl)-1-[3-(methylsulfanyl)propyl]piperidin-4-yl}-3-(phenylamino)-1H-pyrazole-4-carboxamide] | 7.92 | 6.62
N#CCCCN1CCC(CC#N)(n2cc(C(N)=O)c(Nc3ccccc3)n2)CC1 [Example 21-5, 1-[4-(cyanomethyl)-1-(3-cyanopropyl)piperidin-4-yl]-3-(phenylamino)-1H-pyrazole-4-carboxamide] | 7.34 | 6.50
CCC(=O)N1CCC(CC#N)(n2cc(C(N)=O)c(Nc3ccccc3)n2)CC1 [Example 33-1, 1-[4-(Cyanomethyl)-1-propanoylpiperidin-4-yl]-3-(phenylamino)-1H-pyrazole-4-carboxamide] | 8.70 | 7.59
COc1cncc(N2CCC(CC#N)(n3cc(C(N)=O)c(Nc4ccc(F)cc4)n3)CC2)c1 [Example 3-37, 1-[4-(cyanomethyl)-1-(5-methoxypyridin-3-yl)piperidin-4-yl]-3-[(4-fluorophenyl)amino]-1H-pyrazole-4-carboxamide] | 9.22 | 7.77
N#CCC1(n2cc(C(N)=O)c(Nc3ccc(F)cc3)n2)CCN(Cc2cccnn2)CC1 [Example 22-47, 1-[4-(cyanomethyl)-1-(pyridazin-3-ylmethyl)piperidin-4-yl]-3-[(4-fluorophenyl)amino]-1H-pyrazole-4-carboxamide] | 8.22 | 7.00
N#CCC1(n2cc(C(N)=O)c(Nc3ccccc3)n2)CN(C(=O)OCCN2CCOCC2)C1 [Example 30-55, 2-morpholin-4-ylethyl 3-[4-carbamoyl-3-(phenylamino)-1H-pyrazol-1-yl]-3-(cyanomethyl)azetidine-1-carboxylate] | 7.13 | 6.31
CN(C)S(=O)(=O)c1ccc(Nc2nn(C3(CC#N)CCN(C(=O)OC(C)(C)C)CC3)cc2C(N)=O)cc1 [Example 9-21, tert-butyl 4-(4-carbamoyl-3-{[4-(dimethylsulfamoyl)phenyl]amino}-1H-pyrazol-1-yl)-4-(cyanomethyl)piperidine-1-carboxylate] | 9.52 | 9.10
N#CCC1(n2cc(C(N)=O)c(Nc3ccccc3)n2)CCN(C(=O)c2ccsc2)CC1 [Example 34-16, 1-[4-(cyanomethyl)-1-(thiophen-3-ylcarbonyl)piperidin-4-yl]-3-(phenylamino)-1H-pyrazole-4-carboxamide] | 8.70 | 7.46
CC(C)(C)OC(=O)N1CCC(CC#N)(n2cc(C(N)=O)c(Nc3ccccc3)n2)CC1 [Example 2-1, tert-Butyl 4-[4-carbamoyl-3-(phenylamino)-1H-pyrazol-1-yl]-4-(cyanomethyl)piperidine-1-carboxylate] | 9.00 | 7.57
N#CCC1(n2cc(C(N)=O)c(Nc3ccc(F)cc3)n2)CCN(c2cccc(C3CC3)c2)CC1 [Example 3-17, 1-[4-(cyanomethyl)-1-(3-cyclopropylphenyl)piperidin-4-yl]-3-[(4-fluorophenyl)amino]-1H-pyrazole-4-carboxamide] | 7.49 | 6.11
N#CCC1(n2cc(C(N)=O)c(Nc3ccccc3)n2)CCN(Cc2ccccc2Cl)CC1 [Example 21-6, 1-[1-(2-chlorobenzyl)-4-(cyanomethyl)piperidin-4-yl]-3-(phenylamino)-1H-pyrazole-4-carboxamide] | 8.52 | 7.26
Cc1cccc(N2CCC(CC#N)(n3cc(C(N)=O)c(Nc4ccc(F)cc4)n3)CC2)c1F [Example 3-43, 1-[4-(cyanomethyl)-1-(2-fluoro-3-methylphenyl)piperidin-4-yl]-3-[(4-fluorophenyl)amino]-1H-pyrazole-4-carboxamide] | 8.00 | 6.53
CC(C)(C)OC(=O)N1CCC(CC#N)(n2cc(C(N)=O)c(Nc3ccc(F)cn3)n2)CC1 [Example 13-4, tert-butyl 4-(4-carbamoyl-3-(5-fluoropyridin-2-ylamino)-1H-pyrazol-1-yl)-4-(cyanomethyl)piperidine-1-carboxylate] | 8.40 | 6.74
N#CCC1(n2cc(C(N)=O)c(Nc3ccc(F)cc3)n2)CCN(c2ccc(C(F)(F)F)nc2)CC1 [Example 3-28, 1-{4-(cyanomethyl)-1-[6-(trifluoromethyl)pyridin-3-yl]piperidin-4-yl}-3-[(4-fluorophenyl)amino]-1H-pyrazole-4-carboxamide] | 9.22 | 7.59
N#CCC1(n2cc(C(N)=O)c(Nc3ccccc3)n2)CCN(Cc2cccnc2)CC1 [Example 21-2, 1-[4-(cyanomethyl)-1-(pyridin-3-ylmethyl)piperidin-4-yl]-3-(phenylamino)-1H-pyrazole-4-carboxamide] | 8.52 | 7.96
COCCOC(=O)N1CCC(CC#N)(n2cc(C(N)=O)c(Nc3ccc(F)cc3)n2)CC1 [Example 30-48, 2-methoxyethyl 4-{4-carbamoyl-3-[(4-fluorophenyl)amino]-1H-pyrazol-1-yl}-4-(cyanomethyl)piperidine-1-carboxylate] | 8.40 | 7.15
N#CCC1(n2cc(C(N)=O)c(Nc3ccnc(F)c3)n2)CCC(Nc2ccc(Cl)cc2)CC1 (stereo not drawn) [Example 40-45, Cis or trans 1-{4-[(4-chlorophenyl)amino]-1-(cyanomethyl)cyclohexyl}-3-[(2-fluoropyridin-4-yl)amino]-1H-pyrazole-4-carboxamide] | 7.42 | 6.11
N#CCC1(n2cc(C(N)=O)c(Nc3ccc(F)cc3)n2)CCN(CC2CCCCC2)CC1 [Example 22-6, 1-[4-(cyanomethyl)-1-(cyclohexylmethyl)piperidin-4-yl]-3-[(4-fluorophenyl)amino]-1H-pyrazole-4-carboxamide] | 8.22 | 6.68
CC1(C(=O)N2CCC(CC#N)(n3cc(C(N)=O)c(Nc4ccnc(F)c4)n3)CC2)CCC1 [Example 34-60, 1-{4-(cyanomethyl)-1-[(1-methylcyclobutyl)carbonyl]piperidin-4-yl}-3-[(2-fluoropyridin-4-yl)amino]-1H-pyrazole-4-carboxamide] | 8.10 | 6.94
N#CCC1(n2cc(C(N)=O)c(Nc3ccnc(F)c3)n2)CCC(NCC2CCCCC2)CC1 (stereo not drawn) [Example 41-8, Trans 1-{1-(cyanomethyl)-4-[(cyclohexylmethyl)amino]cyclohexyl}-3-[(2-fluoropyridin-4-yl)amino]-1H-pyrazole-4-carboxamide] | 9.10 | 6.82
CCS(=O)(=O)N1CCC(CC#N)(n2cc(C(N)=O)c(Nc3ccccc3)n2)CC1 [Example 37-3, 1-[4-(cyanomethyl)-1-(ethylsulfonyl)piperidin-4-yl]-3-(phenylamino)-1H-pyrazole-4-carboxamide] | 9.00 | 7.92
N#CCC1(n2cc(C(N)=O)c(Nc3ccc(F)cc3)n2)CCN(c2ccc(F)c(F)c2)CC1 [Example 3-45, 1-[4-(cyanomethyl)-1-(3,4-difluorophenyl)piperidin-4-yl]-3-[(4-fluorophenyl)amino]-1H-pyrazole-4-carboxamide] | 8.70 | 7.15
N#CCC1(n2cc(C(N)=O)c(Nc3ccc(F)cc3)n2)CCN(C(=O)OCC2CCOC2)CC1 (stereo not drawn) [Example 30-22, tetrahydrofuran-3-ylmethyl 4-{4-carbamoyl-3-[(4-fluorophenyl)amino]-1H-pyrazol-1-yl}-4-(cyanomethyl)piperidine-1-carboxylate] | 8.30 | 6.91
N#CCC(=O)N1CCC(CC#N)(n2cc(C(N)=O)c(Nc3ccnc(F)c3)n2)CC1 [Example 34-49, 1-[1-(cyanoacetyl)-4-(cyanomethyl)piperidin-4-yl]-3-[(2-fIuoropyridin-4-yl)amino]-1H-pyrazole-4-carboxamide] | 9.70 | 8.05
N#CCC1(n2cc(C(N)=O)c(Nc3ccccc3)n2)CCN(C/C=C/c2ccccc2)CC1 [Example 21-17, 1-{4-(cyanomethyl)-1-[(2E)-3-phenylprop-2-en-1-yl]piperidin-4-yl}-3-(phenylamino)-1H-pyrazole-4-carboxamide] | 7.72 | 6.68
N#CCC1(n2cc(C(N)=O)c(Nc3ccc(S(=O)(=O)C(F)(F)F)cc3)n2)CCN(C(=O)Nc2ccc(C#N)cc2)CC1 [Example 38-45, 4-(4-carbamoyl-3-(4-(trifluoromethylsulfonyl)phenylamino)-1H-pyrazol-1-yl)-4-(cyanomethyl)-N-(4-cyanophenyl)piperidine-1-carboxamide] | 10.00 | 9.30
N#CCC1(n2cc(C(N)=O)c(Nc3ccnc(F)c3)n2)CCC(Nc2ccccc2Cl)CC1 (stereo not drawn) [Example 40-25, Cis or trans 1-{4-[(2-chlorophenyl)amino]-1-(cyanomethyl)cyclohexyl}-3-[(2-fluoropyridin-4-yl)amino]-1H-pyrazole-4-carboxamide] | 7.20 | 6.03
